Experimental data from patent publication US20240116985A1, “STAPLED PEPTIDES AND METHODS THEREOF” (priority 2020, published 2024).
Read-outs that look alike come from different tables or passages of the source.

How the values were obtained:
[1] = biological target: T1, full-length beta-Catenin (Uniprot ID P35222) (Homo sapiens, UniProt P35222); assay: Fluorescence polarization IC50 (beta-catenin / 5FAM-TCF4 10-53 competition); assay type: binding; details: fluorescence polarization
T1 construct: 10 nM full-length beta-Catenin (Uniprot ID P35222)
T1 sequence (P35222 1-781): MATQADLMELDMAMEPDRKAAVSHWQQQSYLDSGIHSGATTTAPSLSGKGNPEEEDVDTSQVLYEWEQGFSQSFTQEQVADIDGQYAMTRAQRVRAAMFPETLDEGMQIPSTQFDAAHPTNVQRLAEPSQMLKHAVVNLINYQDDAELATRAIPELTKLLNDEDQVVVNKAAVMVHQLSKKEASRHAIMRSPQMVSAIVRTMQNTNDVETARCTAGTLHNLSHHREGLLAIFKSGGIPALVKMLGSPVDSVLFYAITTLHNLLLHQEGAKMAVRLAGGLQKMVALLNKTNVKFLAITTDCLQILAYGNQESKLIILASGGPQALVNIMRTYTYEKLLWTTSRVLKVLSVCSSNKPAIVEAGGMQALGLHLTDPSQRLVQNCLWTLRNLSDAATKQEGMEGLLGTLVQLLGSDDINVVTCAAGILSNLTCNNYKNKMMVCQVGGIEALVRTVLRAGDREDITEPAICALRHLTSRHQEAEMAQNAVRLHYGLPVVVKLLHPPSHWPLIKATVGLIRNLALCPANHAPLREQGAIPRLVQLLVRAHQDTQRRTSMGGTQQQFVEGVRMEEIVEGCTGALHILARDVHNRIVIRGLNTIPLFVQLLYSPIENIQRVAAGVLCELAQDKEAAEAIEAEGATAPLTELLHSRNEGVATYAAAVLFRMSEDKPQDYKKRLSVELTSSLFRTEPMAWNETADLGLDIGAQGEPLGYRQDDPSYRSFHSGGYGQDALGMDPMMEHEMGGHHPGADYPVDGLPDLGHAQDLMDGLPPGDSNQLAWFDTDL

[2] = biological target: T2, beta-catenin/TCF4 engagement (Homo sapiens, UniProt P35222); assay: Nano-BRET target engagement assay (B-cat-Halo & TCF4-Luc in HEK293 cells); assay type: cell-based; details: absolute IC50; read-out: NanoBRET Abs IC50
T2 construct: expressed in transfected cells; host or cells: HEK293
T2 sequence (P35222 1-781): T1 sequence (P35222 1-781)

[3] = beta-catenin, read-out: FP EC50

Compound | IC50 ([1]; read-out: beta-Catenin FP IC50) [nM] | IC50 [2] [nM] | IC50 [1, 3] [nM]
CC(=O)N1CCC[C@]12CC=CCCCC1(CCCC=CCCCOC(=O)N3CC[C@@](C(=O)N[C@@H](Cc4ccsc4)C(=O)N[C@@H](Cc4csc5ccccc45)C(=O)N[C@@H](CCC(N)=O)C(N)=O)(C3)NC(=O)[C@H](CC(C)C)NC(=O)[C@H](Cc3ccccc3)NC(=O)[C@H](C)NC(=O)[C@H](C)NC(=O)[C@H](Cc3cn(CC(=O)O)c4ccccc34)NC(=O)[C@H](CC(=O)O)NC1=O)NC(=O)[C@H](CC(C)(C)C)NC(=O)[C@H](CC(=O)O)NC2=O (stereo partly drawn) [I-1445, Ac-PL3-Asp-Npg-B5-Asp-1AcAW-Ala-Ala-Phe-Leu-PyrS2-3Thi-BztA-Gln-NH2] | 13 | 11100 | –
CC(=O)N1CCC[C@]12CC=CCCCC1(CCCC=CCCCOC(=O)N3CC[C@@](C(=O)N[C@@H](Cc4ccccc4Cl)C(=O)N[C@@H](Cc4csc5ccccc45)C(=O)N[C@@H](CCC(N)=O)C(N)=O)(C3)NC(=O)[C@H](CC(N)=O)NC(=O)[C@H](Cc3ccccc3)NC(=O)[C@H](C)NC(=O)[C@H](C)NC(=O)[C@H](CN(CCCC(F)(F)F)CC(=O)O)NC(=O)[C@H](CC(=O)O)NC1=O)NC(=O)[C@H](CC(C)(C)C)NC(=O)[C@H](CC(=O)O)NC2=O (stereo partly drawn) [I-1446, Ac-PL3-Asp-Npg-B5-Asp-[Tfb]GA-Ala-Ala-Phe-Asn-PyrS2-2C1F-BztA-Gln-NH2] | 9 | 35200 | –
CC(=O)N1CCC[C@]12CC=CCCCC1(CCCC=CCCCOC(=O)N3CC[C@@](C(=O)N[C@@H](Cc4ccccc4Cl)C(=O)N[C@@H](Cc4csc5ccccc45)C(=O)N[C@@H](CCC(N)=O)C(N)=O)(C3)NC(=O)[C@H](CC(N)=O)NC(=O)[C@H](Cc3ccccc3)NC(=O)[C@H](C)NC(=O)[C@H](C)NC(=O)[C@H](CN(CC(=O)O)Cc3ccccc3)NC(=O)[C@H](CC(=O)O)NC1=O)NC(=O)[C@H](CC(C)(C)C)NC(=O)[C@H](CC(=O)O)NC2=O (stereo partly drawn) [I-1447, Ac-PL3-Asp-Npg-B5-Asp-[Bn]GA-Ala-Ala-Phe-Asn-PyrS2-2C1F-BztA-Gln-NH2] | 11 | 43400 | –
CC(=O)N1CCC[C@]12CC=CCCCC1(CCCC=CCCCOC(=O)N3CC[C@@](C(=O)N[C@@H](Cc4ccccc4Cl)C(=O)N[C@@H](Cc4csc5ccccc45)C(=O)N[C@@H](CCC(N)=O)C(N)=O)(C3)NC(=O)[C@H](CC(N)=O)NC(=O)[C@H](Cc3ccccc3)NC(=O)[C@H](C)NC(=O)[C@H](C)NC(=O)[C@H](CN(CC(=O)O)Cc3c(F)c(F)c(F)c(F)c3F)NC(=O)[C@H](CC(=O)O)NC1=O)NC(=O)[C@H](CC(C)(C)C)NC(=O)[C@H](CC(=O)O)NC2=O (stereo partly drawn) [I-1449, Ac-PL3-Asp-Npg-B5-Asp-[Pfbn]GA-Ala-Ala-Phe-Asn-PyrS2-2C1F-BztA-Gln-NH2] | 16 | 29300 | 16
CC(=O)N1CCC[C@]12CC=CCCCC1(CCCC=CCCCOC(=O)N3CC[C@@](C(=O)N[C@@H](Cc4ccccc4Cl)C(=O)N[C@@H](Cc4csc5ccccc45)C(=O)N[C@@H](CCC(N)=O)C(N)=O)(C3)NC(=O)[C@H](CC(N)=O)NC(=O)[C@H](Cc3ccccc3)NC(=O)[C@H](C)NC(=O)[C@H](C)NC(=O)[C@H](CN(CC(=O)O)C(C)C)NC(=O)[C@H](CC(=O)O)NC1=O)NC(=O)[C@H](CC(C)(C)C)NC(=O)[C@H](CC(=O)O)NC2=O (stereo partly drawn) [I-1451, Ac-PL3-Asp-Npg-B5-Asp-[iPr]GA-Ala-Ala-Phe-Asn-PyrS2-2C1F-BztA-Gln-NH2] | 13 | 26200 | –
CC(=O)N1CCC[C@]12CC=CCCCC1(CCCC=CCCCCCC[C@@](C)(C(=O)N[C@@H](Cc3ccsc3)C(=O)N[C@@H](Cc3csc4ccccc34)C(=O)N[C@@H](CCC(N)=O)C(N)=O)NC(=O)[C@H](CC(N)=O)NC(=O)[C@H](Cc3ccccc3)NC(=O)[C@H](C)NC(=O)[C@H](C)NC(=O)[C@H](CN(CCCC(F)(F)F)CC(=O)O)NC(=O)[C@H](CC(=O)O)NC1=O)NC(=O)[C@H](CC(C)(C)C)NC(=O)[C@H](CC(=O)O)NC2=O (stereo partly drawn) [I-1454, Ac-PL3-Asp-Npg-B5-Asp-[Tfb]GA-Ala-Ala-Phe-Asn-S8-3Thi-BztA-Gln-NH2] | 22 | 26800 | 22
CC(=O)N1CCC[C@]12CC=CCCCC1(CCCC=CCCCCCC[C@@](C)(C(=O)N[C@@H](Cc3ccsc3)C(=O)N[C@@H](Cc3csc4ccccc34)C(=O)N[C@@H](CCC(N)=O)C(N)=O)NC(=O)[C@H](CC(N)=O)NC(=O)[C@H](Cc3ccccc3)NC(=O)[C@H](C)NC(=O)[C@H](C)NC(=O)[C@H](CN(CCCC(F)(F)F)CC(=O)O)NC(=O)[C@H](CC(=O)O)NC1=O)NC(=O)[C@H](CC(C)(C)C)NC(=O)[C@H](CC(=O)O)NC2=O (stereo partly drawn) [I-1455, Ac-PL3-Asp-Npg-B5-Asp-[Tfb]GA-Ala-Ala-Phe-Asn-S8-3Thi-BztA-Gln-NH2] | 13 | 23100 | 13
CC(=O)N1CCC[C@]12CC=CCCCC1(CCCC=CCCCCCC[C@@](C)(C(=O)N[C@@H](Cc3ccsc3)C(=O)N[C@@H](Cc3csc4ccccc34)C(=O)N[C@@H](CCC(N)=O)C(N)=O)NC(=O)[C@H](CC(N)=O)NC(=O)[C@H](Cc3ccccc3)NC(=O)[C@H](C)NC(=O)[C@H](C)NC(=O)[C@H](CN(CC(=O)O)Cc3ccccc3)NC(=O)[C@H](CC(=O)O)NC1=O)NC(=O)[C@H](CC(C)(C)C)NC(=O)[C@H](CC(=O)O)NC2=O (stereo partly drawn) [I-1456, Ac-PL3-Asp-Npg-B5-Asp-[Bn]GA-Ala-Ala-Phe-Asn-S8-3Thi-BztA-Gln-NH2] | 16 | 23700 | –
CC(=O)N1CCC[C@]12CC=CCCCC1(CCCC=CCCCOC(=O)N3CC[C@@](C(=O)N[C@@H](Cc4ccccc4Cl)C(=O)N[C@@H](Cc4csc5ccccc45)C(=O)N[C@@H](CCC(N)=O)C(N)=O)(C3)NC(=O)[C@H](CC(N)=O)NC(=O)[C@H](Cc3ccccc3)NC(=O)[C@H](C)NC(=O)[C@H](C)NC(=O)[C@H](CNCCC(F)(F)F)NC(=O)[C@H](CC(=O)O)NC1=O)NC(=O)[C@H](CC(C)(C)C)NC(=O)[C@H](CC(=O)O)NC2=O (stereo partly drawn) [I-1457, Ac-PL3-Asp-Npg-B5-Asp-[Tfp]Dap-Ala-Ala-Phe-Asn-PyrS2-2C1F-BztA-Gln-NH2] | 43 | > 20000 | –
CC(=O)N1CCC[C@]12CC=CCCCC1(CCCC=CCCCCCC[C@@](C)(C(=O)N[C@@H](Cc3ccccc3)C(=O)N[C@@H](Cc3csc4ccccc34)C(=O)N[C@@H](CCC(N)=O)C(N)=O)NC(=O)[C@H](CCC(N)=O)NC(=O)[C@H](Cc3ccccc3)NC(=O)[C@H](C)NC(=O)[C@H](C)NC(=O)[C@H](CCC(=O)O)NC(=O)[C@H](CC(=O)O)NC1=O)NC(=O)[C@H](CC(C)C)NC(=O)[C@H](CC(=O)O)NC2=O (stereo partly drawn) [I-1458, Ac-PL3-Asp-Leu-B5-Asp-Glu-Ala-Ala-Phe-Gln-S8-Phe-BztA-Gln-NH2] | 26 | 18100 | –
CC(=O)N1CCC[C@]12CC=CCCCC1(CCCC=CCCCOC(=O)N3CC[C@@](C(=O)N[C@@H](Cc4ccsc4)C(=O)N[C@@H](Cc4csc5ccccc45)C(=O)N[C@@H](CCC(N)=O)C(N)=O)(C3)NC(=O)[C@H](CC(C)C)NC(=O)[C@H](Cc3ccccc3)NC(=O)[C@H](C)NC(=O)[C@H](C)NC(=O)[C@H](CC(=O)O)NC(=O)[C@H](CC(=O)O)NC1=O)NC(=O)[C@H](CCCCNC(=O)COCCOCCNC(=O)CC[C@@H](C)[C@H]1CC[C@H]3[C@@H]4CC[C@@H]5C[C@H](O)CC[C@]5(C)[C@H]4CC[C@]13C)NC(=O)[C@H](CC(=O)O)NC2=O (stereo partly drawn) [I-1470, Ac-PL3-Asp-[lithocholate-PEG2]-Lys-B5-Asp-Asp-Ala-Ala-Phe-Leu-PyrS2-3Thi-BztA-Gln-NH2] | 57 | > 20000 | –
CC(=O)N1CCC[C@]12CC=CCCCC1(CCCC=CCCCOC(=O)N3CC[C@@](C(=O)N[C@@H](Cc4ccsc4)C(=O)N[C@@H](Cc4csc5ccccc45)C(=O)N[C@@H](CCC(N)=O)C(N)=O)(C3)NC(=O)[C@H](CC(C)C)NC(=O)[C@H](Cc3ccccc3)NC(=O)[C@H](C)NC(=O)[C@H](C)NC(=O)[C@H](CC(=O)O)NC(=O)[C@H](CC(=O)O)NC1=O)NC(=O)[C@H](CCCCNC(=O)C13CC4(C)CC(C)(CC(C)(C4)C1)C3)NC(=O)[C@H](CC(=O)O)NC2=O (stereo partly drawn) [I-1471, Ac-PL3-Asp-[Me3AdamantC]-Lys-B5-Asp-Asp-Ala-Ala-Phe-Leu-PyrS2-3Thi-BztA-Gln-NH2] | 34 | > 20000 | –
CC(=O)N1CCC[C@]12CC=CCCCC1(CCCC=CCCCOC(=O)N3CC[C@@](C(=O)N[C@@H](Cc4ccsc4)C(=O)N[C@@H](Cc4csc5ccccc45)C(=O)N[C@@H](CCC(N)=O)C(N)=O)(C3)NC(=O)[C@H](CC(C)C)NC(=O)[C@H](Cc3ccccc3)NC(=O)[C@H](C)NC(=O)[C@H](C)NC(=O)[C@H](CC(=O)O)NC(=O)[C@H](CC(=O)O)NC1=O)NC(=O)[C@H](CCCCNC(=O)COCCOCCNC(=O)C13CC4(C)CC(C)(CC(C)(C4)C1)C3)NC(=O)[C@H](CC(=O)O)NC2=O (stereo partly drawn) [I-1472, Ac-PL3-Asp-[Me3AdamantC-PEG2]-Lys-B5-Asp-Asp-Ala-Ala-Phe-Leu-PyrS2-3Thi-BztA-Gln-NH2] | 12 | > 20000 | –
